*1 amine or outer side, *2 acyl side, *3 side chain or, on linkers, in order; H or OH if unused. Where a SMILES comes first, the peptide text is derived from it. Bridges are numbered along the chain shown (N, C = ends). [ ]: non-standard residue; d: D form. Cys(O)(CH2CO) = O=C([C@H](C[S+]([O-])CC(=O)[*:3])N[*:1])[*:2]; Aad = N[C@@H](CCCC(=O)O)C(=O)O; Pen = CC(C)(S)[C@H](N)C(=O)O; dOrn = NCCC[C@@H](N)C(=O)O
Each compound was assayed against human platelet rich plasma (PRP) (Homo sapiens, UniProt P05106+P08514) (assay: In Vitro Human Platelet Aggregation Assay). Conditions: human PRP; read-out: Human Platelet Aggregation IC50.
human platelet rich plasma (PRP), sequence (P08514 32-1039): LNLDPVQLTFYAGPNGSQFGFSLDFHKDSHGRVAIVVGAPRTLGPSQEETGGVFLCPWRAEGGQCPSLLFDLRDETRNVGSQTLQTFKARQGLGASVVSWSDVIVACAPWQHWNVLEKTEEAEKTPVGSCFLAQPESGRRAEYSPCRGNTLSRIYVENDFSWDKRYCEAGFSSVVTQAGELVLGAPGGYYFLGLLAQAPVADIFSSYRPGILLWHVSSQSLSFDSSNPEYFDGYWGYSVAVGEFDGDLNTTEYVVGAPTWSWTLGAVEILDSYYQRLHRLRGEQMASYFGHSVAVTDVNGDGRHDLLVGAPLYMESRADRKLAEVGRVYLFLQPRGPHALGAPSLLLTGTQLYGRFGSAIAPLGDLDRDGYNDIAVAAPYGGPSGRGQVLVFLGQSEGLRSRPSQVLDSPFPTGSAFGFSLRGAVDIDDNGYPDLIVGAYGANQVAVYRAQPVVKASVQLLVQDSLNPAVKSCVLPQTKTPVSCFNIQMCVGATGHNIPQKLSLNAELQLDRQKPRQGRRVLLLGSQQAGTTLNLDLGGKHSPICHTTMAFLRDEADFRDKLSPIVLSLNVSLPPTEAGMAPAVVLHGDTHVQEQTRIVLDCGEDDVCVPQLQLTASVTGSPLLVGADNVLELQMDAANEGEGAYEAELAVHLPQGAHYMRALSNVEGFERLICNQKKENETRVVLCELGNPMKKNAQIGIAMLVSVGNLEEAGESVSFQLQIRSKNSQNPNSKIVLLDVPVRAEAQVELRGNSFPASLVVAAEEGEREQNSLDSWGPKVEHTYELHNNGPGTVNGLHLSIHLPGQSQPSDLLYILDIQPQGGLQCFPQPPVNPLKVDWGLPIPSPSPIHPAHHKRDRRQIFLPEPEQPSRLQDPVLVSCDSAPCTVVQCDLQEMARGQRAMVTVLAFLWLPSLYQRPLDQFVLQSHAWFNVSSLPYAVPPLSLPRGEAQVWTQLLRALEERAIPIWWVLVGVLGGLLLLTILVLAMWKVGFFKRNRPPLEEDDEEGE
human platelet rich plasma (PRP), sequence (P05106 27-788): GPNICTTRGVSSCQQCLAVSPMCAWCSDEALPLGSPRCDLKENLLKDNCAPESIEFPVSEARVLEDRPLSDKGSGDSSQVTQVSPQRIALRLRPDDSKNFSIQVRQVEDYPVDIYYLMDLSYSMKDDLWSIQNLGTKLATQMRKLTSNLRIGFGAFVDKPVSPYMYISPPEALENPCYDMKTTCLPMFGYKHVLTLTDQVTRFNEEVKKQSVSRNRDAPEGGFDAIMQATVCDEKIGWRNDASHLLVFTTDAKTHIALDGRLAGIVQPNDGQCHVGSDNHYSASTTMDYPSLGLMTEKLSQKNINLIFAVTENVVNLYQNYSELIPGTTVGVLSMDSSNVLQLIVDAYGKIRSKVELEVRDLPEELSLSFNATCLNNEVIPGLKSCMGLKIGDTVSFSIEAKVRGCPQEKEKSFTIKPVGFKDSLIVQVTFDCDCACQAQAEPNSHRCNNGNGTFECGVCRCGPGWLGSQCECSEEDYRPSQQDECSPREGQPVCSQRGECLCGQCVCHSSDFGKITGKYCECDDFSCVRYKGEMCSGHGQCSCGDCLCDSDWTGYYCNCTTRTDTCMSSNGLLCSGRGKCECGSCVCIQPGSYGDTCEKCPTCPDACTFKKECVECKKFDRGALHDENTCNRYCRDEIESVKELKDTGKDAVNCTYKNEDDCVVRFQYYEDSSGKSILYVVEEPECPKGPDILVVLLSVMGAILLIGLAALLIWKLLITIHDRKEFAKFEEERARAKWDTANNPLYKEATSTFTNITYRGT
Assay type: cell-based
Description: Platelet aggregation assays are performed in human platelet rich plasma (PRP). Fifty milliliters of whole human blood (9 parts) is drawn on 3.6% sodium citrate (1 part) from a donor who has not taken aspirin or related medications for at least two weeks. The blood is centrifuged at 160×g for 10 minutes at 22° C. and allowed to stand for 5 minutes after which the PRP is decanted. Platelet poor plasma (PPP) is isolated from the remaining blood after centrifugation at 2000×g for 25 minutes. The platelet count of the PRP is diluted to about 300,000 platelets per microliter with PPP.
A 225 μl aliquot of PRP plus 25 μl of either a dilution of the test inhibitor sample or a control (PBS) is incubated for 5 minutes in a Chrono-log Whole Blood Aggregometer at 25° C. An aggregating agent (collagen, 1 μg/ml; U46619, 100 ng/ml; or ADP, 17 μM) is added and the transmission is recorded.

Row | Compound | IC50
1 | N=C(N)NCCC[C@@H]1NC(=O)[C@@H](Cc2ccc(O)cc2)NC(=O)CSC[C@@H](C(=O)N[C@@H](CCCCN)C(=O)O)NC(=O)[C@H](CC(=O)O)NC(=O)CNC1=O [7/25, cyclo-S-acetyl-dTyr--Arg--Gly--Asp--Cys--Lys--OH] ({CH2CO}-[dY]RGDCK-OH; thioether N-5) | 370 nM
2 | cyclo-S-acetyl-dTyr--Arg--Gly--Asp--Cys--Tyr--Arg--NH2 [7/43] | 350 nM

What follows are compounds tested on New Zealand White rabbits (assay: Rabbit peripheral blood flow (PBF) by observation of ear vessels). Conditions: rabbit, i.v. bolus 0.5 mg/kg + 0.012 mg/kg infused over 60 minutes; measured visually.
Assay type: in vivo
Set-up: key to PBF: NORMAL: Normal flow is defined as ears that appear pink to red, with no visible constriction of the major blood vessels; Decreased flow applies to ears that have constricted vessels resulting in cold, pallid ears for up to 40 minutes following the start of the inhibitor infusion
Description: Catheters are flushed and locked after every sample.
For the experiments summarized in Table 1, PBF was monitored by observation of the condition of the blood vessels in the rabbits' ears, prior to and during the infusion. Normal flow is defined as ears that appear pink to red, with no visible constriction of the major blood vessels. Decreased flow applies to ears that have constricted vessels resulting in cold, pallid ears for up to 40 minutes following the start of the inhibitor infusion.

Row | Compound | PBF
3 | N=C(N)NCCC[C@H](NC(=O)[C@@H]1C[S+]([O-])CC(=O)N[C@H](Cc2ccc(O)cc2)C(=O)N[C@@H](CCCNC(=N)N)C(=O)NCC(=O)N[C@@H](CC(=O)O)C(=O)N1)C(N)=O (single isomer, unassigned) [drawing 33] | NORMAL

Same assay, conditions: rabbit, i.v. bolus 1.5 mg/kg + 0.036 mg/kg infused over 60 minutes; measured visually

Row | Compound | PBF
4 | N=C(N)NCCC[C@@H]1NC(=O)[C@@H](Cc2ccc(O)cc2)NC(=O)[C@@H](CCCNC(=N)N)SC[C@@H](C(=O)O)NC(=O)[C@H](CC(=O)O)NC(=O)CNC1=O | NORMAL
5 | N=C(N)NCCC[C@@H]1NC(=O)[C@@H](Cc2ccc(O)cc2)NC(=O)[C@H](CCCNC(=N)N)SC[C@@H](C(=O)O)NC(=O)[C@H](CC(=O)O)NC(=O)CNC1=O | NORMAL
6 | N=C(N)NCCC[C@@H]1NC(=O)[C@@H](Cc2ccc(O)cc2)NC(=O)C[S+]([O-])C[C@@H](C(=O)N[C@@H](CCCN)C(N)=O)NC(=O)[C@H](CC(=O)O)NC(=O)CNC1=O (stereo partly drawn) | NORMAL
7 | NCCCC[C@@H]1NC(=O)[C@@H](Cc2ccc(O)cc2)NC(=O)C(c2ccccc2)SC[C@@H](C(=O)O)NC(=O)[C@H](CC(=O)O)NC(=O)CNC1=O (single isomer, unassigned) [drawing 13] | NORMAL
8 | N=C(N)NCCC[C@@H]1NC(=O)[C@@H](Cc2ccc(O)cc2)NC(=O)C(CCCCN)SC[C@@H](C(=O)O)NC(=O)[C@H](CC(=O)O)NC(=O)CNC1=O (single isomer, unassigned) [drawing 22] | NORMAL
9 | N=C(N)NCCC[C@@H]1NC(=O)[C@@H](Cc2ccc(O)cc2)NC(=O)C(CCCCN)SC[C@@H](C(=O)O)NC(=O)[C@H](CC(=O)O)NC(=O)CNC1=O (single isomer, unassigned) [drawing 23] | NORMAL
10 | N=C(N)NCCC[C@H](NC(=O)[C@@H]1C[S+]([O-])CC(=O)N[C@H](Cc2ccc(O)cc2)C(=O)N[C@@H](CCCNC(=N)N)C(=O)NCC(=O)N[C@@H](CC(=O)O)C(=O)N1)C(N)=O (single isomer, unassigned) [drawing 34] | NORMAL
11 | CC1(C)SCC(=O)N[C@H](Cc2ccc(O)cc2)C(=O)N[C@@H](CCCCN)C(=O)NCC(=O)N[C@@H](CC(=O)O)C(=O)N[C@@H]1C(=O)O [drawing 9] ({CH2CO}-[dY]KGD[Pen]-OH; thioether N-5) | NORMAL
12 | N=C(N)NCCC[C@H](NC(=O)[C@@H]1CSCC(=O)N[C@H](Cc2ccc(O)cc2)C(=O)N[C@@H](CCCNC(=N)N)C(=O)NCC(=O)N[C@@H](CC(=O)O)C(=O)N1)C(N)=O [drawing 15] ({CH2CO}-[dY]RGDCR-NH2; thioether N-5) | NORMAL
13 | N=C(N)NCCC[C@@H]1NC(=O)[C@@H](Cc2ccc(O)cc2)NC(=O)CSC[C@@H](C(=O)N[C@H](CCCN)C(N)=O)NC(=O)[C@H](CC(=O)O)NC(=O)CNC1=O [drawing 18] ({CH2CO}-[dY]RGDC[dOrn]-NH2; thioether N-5) | NORMAL
14 | CC1(C)SCC(=O)N[C@H](Cc2ccc(O)cc2)C(=O)N[C@@H](CCCCN)C(=O)NCC(=O)N[C@@H](CC(=O)O)C(=O)N[C@@H]1C(=O)N[C@@H](CCCNC(=N)N)C(N)=O [drawing 26] ({CH2CO}-[dY]KGD[Pen]R-NH2; thioether N-5) | NORMAL
15 | N=C(N)NCCC[C@H](NC(=O)[C@@H]1CCCC(=O)N[C@H](Cc2ccc(O)cc2)C(=O)N[C@@H](CCCNC(=N)N)C(=O)NCC(=O)N[C@@H](CC(=O)O)C(=O)N1)C(N)=O [drawing 28] ([dY]RGD[Aad]R-NH2; lactam N-5) | NORMAL
16 | N=C(N)NCCC[C@@H]1NC(=O)[C@@H](Cc2ccc(O)cc2)NC(=O)CCC[C@@H](C(=O)N[C@@H](CCCCN)C(N)=O)NC(=O)[C@H](CC(=O)O)NC(=O)CNC1=O [drawing 29] ([dY]RGD[Aad]K-NH2; lactam N-5) | NORMAL
17 | N=C(N)NCCC[C@@H]1NC(=O)[C@@H](Cc2ccc(O)cc2)NC(=O)CSC[C@@H](C(=O)N[C@@H](CCCCN)C(=O)O)NC(=O)[C@H](CC(=O)O)NC(=O)CNC1=O [drawing 32] ({CH2CO}-[dY]RGDCK-OH; thioether N-5) | NORMAL

Same assay, conditions: rabbit, i.v. bolus .375 mg/kg + 0.009 mg/kg infused over 60 minutes; measured visually

Row | Compound | PBF
18 | N=C(N)NCCC[C@@H]1NC(=O)[C@@H](Cc2ccc(O)cc2)NC(=O)C[S+]([O-])C[C@@H](C(=O)O)NC(=O)[C@H](CC(=O)O)NC(=O)CNC1=O (stereo partly drawn) ([dY]RGD[Cys(O)(CH2CO)]-OH; lactam N-5) | NORMAL
